Results as given in US11117883B2 (Ariad Pharmaceuticals, Inc., priority 2016, dated 2021).

Assays:
Experiment in all cases: c-Kit assay: Ba/F3 KIT mutant viability (Cell Titer-Glo, 72 hours)
Assay type in all cases: cell-based
[1] = target: T1, BAF3 FL KIT EX11DEL/T6701 (Homo sapiens, UniProt P10721, T670I, cells depend on it, form not given); conditions: EX11DEL/T6701, viability after 72 hours
T1 construct: "BAF3 FL KIT EX11DEL/ T6701"
Protocol: (§1) KIT cDNAs were synthesized by GenScript and cloned into the pLVX-IRES-Puro vector (Clontech). Viral particles were produced by transfecting pLVX-IRES-puro vectors containing KIT mutant genes into HEK293 cells (Invitrogen) using the Trans-Lentiviral ORF Packaging Kit (Thermo Scientific). 48 hours post-transfection, virus-containing supernatants were harvested and incubated for another 48-72 hours with parental Ba/F3 cells (DSMZ) in the presence of 10 ng/mL […] (R&D Systems). Transduced Ba/F3 cells were then selected by IL-3 withdrawal and puromycin (0.5-1 μg/mL, Invitrogen).
(§2) Cell lines (i.e., EX11DEL, EX11DEL/D816H, EX11DEL/T670I, and EX11DEL/V654A) were plated into 384 well plates using RPMI 1640 supplemented with 10% FBS at densities that produced linear growth and incubated at 37° C. in 5% (v/v) CO2. Cells were treated with eight concentrations of compound over a 4-fold dilution (10 μM to 0.61 nM) and viability was assessed using Cell Titer-Glo assay (Promega) after 72 hours. Data were plotted as percent viability relative to vehicle-treated cells. Dose-responses curves were generated and used to calculate IC50 values.

[2] = target: T2, BAF3 FL KIT EX11DEL (Homo sapiens, UniProt P10721, cells depend on it, form not given); conditions: viability after 72 hours
T2 construct: "BAF3 FL KIT EX11DEL"
Protocol: as §1, §2

[3] = target: T3, BAF3 FL KIT EX11DEL/D816H (Homo sapiens, UniProt P10721, D816H, cells depend on it, form not given); conditions: viability after 72 hours
T3 construct: "BAF3 FL KIT EX11DEL/ D816H"
Protocol: as §1, §2

[4] = target: T4, BAF3 FL KIT EX11DEL/V654A (Homo sapiens, UniProt P10721, V654A, cells depend on it, form not given); conditions: viability after 72 hours
T4 construct: "BAF3 FL KIT EX11DEL/ V654A"
Protocol: as §1, §2

T2 sequence (P10721 with tags, fused parts or gaps DEL557-558): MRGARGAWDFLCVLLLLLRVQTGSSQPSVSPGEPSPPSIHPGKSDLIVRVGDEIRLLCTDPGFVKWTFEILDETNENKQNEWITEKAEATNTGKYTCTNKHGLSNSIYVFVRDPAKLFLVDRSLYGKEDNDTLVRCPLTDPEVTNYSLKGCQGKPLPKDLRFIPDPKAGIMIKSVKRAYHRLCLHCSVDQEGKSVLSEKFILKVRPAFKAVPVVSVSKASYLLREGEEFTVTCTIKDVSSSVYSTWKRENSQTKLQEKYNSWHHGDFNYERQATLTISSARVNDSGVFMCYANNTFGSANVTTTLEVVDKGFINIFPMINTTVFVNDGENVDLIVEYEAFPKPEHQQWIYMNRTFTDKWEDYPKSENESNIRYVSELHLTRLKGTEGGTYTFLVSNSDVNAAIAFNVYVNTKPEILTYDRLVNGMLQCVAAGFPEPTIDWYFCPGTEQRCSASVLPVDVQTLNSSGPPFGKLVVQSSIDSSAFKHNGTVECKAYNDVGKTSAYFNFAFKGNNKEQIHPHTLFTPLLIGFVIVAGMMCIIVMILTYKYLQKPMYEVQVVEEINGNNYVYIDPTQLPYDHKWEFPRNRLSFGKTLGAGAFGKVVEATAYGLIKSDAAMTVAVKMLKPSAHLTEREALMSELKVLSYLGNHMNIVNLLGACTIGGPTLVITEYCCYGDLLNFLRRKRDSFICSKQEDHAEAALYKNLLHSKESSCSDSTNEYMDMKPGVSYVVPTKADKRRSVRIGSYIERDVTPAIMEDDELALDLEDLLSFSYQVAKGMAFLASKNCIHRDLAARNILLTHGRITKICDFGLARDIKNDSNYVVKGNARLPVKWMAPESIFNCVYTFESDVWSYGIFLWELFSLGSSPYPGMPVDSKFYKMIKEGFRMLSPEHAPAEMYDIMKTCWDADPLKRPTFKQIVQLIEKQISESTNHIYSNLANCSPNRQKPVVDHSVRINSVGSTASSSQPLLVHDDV
T1 sequence (P10721 with tags, fused parts or gaps DEL557-558/T670I, form open): as the sequence (P10721 with tags, fused parts or gaps DEL557-558) above, with T668I counted along it
T4 sequence (P10721 with tags, fused parts or gaps DEL557-558/V654A, form open): as the sequence (P10721 with tags, fused parts or gaps DEL557-558) above, with V652A counted along it
T3 sequence (P10721 with tags, fused parts or gaps DEL557-558/D816H, form open): as the sequence (P10721 with tags, fused parts or gaps DEL557-558) above, with D814H counted along it

Compound: Cc1ccc(C(=O)Nc2cccc(C3CC3)c2)cc1C#Cc1ccc2c(c1)ncn2-c1cnn(C)c1 [Compound I-28, N-(3-cyclopropylphenyl)-4-methyl-3-((1-(1-methyl-1H-pyrazol-4-yl)-1H-benzo[d]imidazol-5-yl)ethynyl)benzamide]
- GI50 [1]: 10 to 50 nM
- GI50 [2]: 10 to 50 nM
- GI50 [3]: 50 to 100 nM
- GI50 [4]: 50 to 100 nM

Compound: COCCn1cc(-n2cnc3cc(C#Cc4cc(NC(=O)c5cc(C(F)(F)F)ccn5)ccc4C)ccc32)cn1 [Compound I-38, N-(3-((1-(1-(2-methoxyethyl)-1H-pyrazol-4-yl)-1H-benzo[d]imidazol-5-yl)ethynyl)-4-methylphenyl)-4-(trifluoromethyl)picolinamide]
- GI50 [1]: 10 to 50 nM
- GI50 [2]: < 10 nM
- GI50 [3]: 50 to 100 nM
- GI50 [4]: 10 to 50 nM

Compound: Cc1ccc(NC(=O)c2cc(C(F)(F)F)ccn2)cc1C#Cc1ccc2c(c1)ncn2-c1cnn(CCO)c1 [Compound I-39, N-(3-((1-(1-(2-hydroxyethyl)-1H-pyrazol-4-yl)-1H-benzo[d]imidazol-5-yl)ethynyl)-4-methylphenyl)-4-(trifluoromethyl)picolinamide]
- GI50 [1]: < 10 nM
- GI50 [2]: < 10 nM
- GI50 [3]: 10 to 50 nM
- GI50 [4]: 10 to 50 nM

Compound: Cn1cc(-n2cnc3cc(C#Cc4cc(NC(=O)c5cc(C(F)(F)F)ccn5)ccc4F)ccc32)cn1 [Compound I-52, N-(4-fluoro-3-((1-(1-methyl-1H-pyrazol-4-yl)-1H-benzo[d]imidazol-5-yl)ethynyl)phenyl)-4-(trifluoromethyl)picolinamide]
- GI50 [1]: < 10 nM
- GI50 [2]: < 10 nM
- GI50 [3]: 100 to 10000 nM
- GI50 [4]: 50 to 100 nM

Compound: Cc1ccc(C(=O)Nc2cc(C(F)(F)F)ccn2)cc1C#Cc1ccc2c(c1)ncn2C [Compound I-8, 4-methyl-3-((1-methyl-1H-benzo[d]imidazol-5-yl)ethynyl)-N-(4-(trifluoromethyl)pyridin-2-yl)benzamide]
- GI50 [1]: 10 to 50 nM
- GI50 [2]: 10 to 50 nM
- GI50 [3]: 50 to 100 nM
- GI50 [4]: 10 to 50 nM

Compound: COCCn1cnc2cc(C#Cc3cc(C(=O)Nc4cc(C(F)(F)F)ccn4)ccc3C)ccc21 [Compound I-4, 3-((1-(2-methoxyethyl)-1H-benzo[d]imidazol-5-yl)ethynyl)-4-methyl-N-(4-(trifluoromethyl)pyridin-2-yl)benzamide]
- GI50 [1]: 50 to 100 nM
- GI50 [2]: < 10 nM
- GI50 [3]: 100 to 10000 nM
- GI50 [4]: 50 to 100 nM

Compound: Cc1ccc(NC(=O)c2cc(C(F)(F)F)ccn2)cc1C#Cc1ccc2c(c1)ncn2-c1cn[nH]c1 [Compound I-43, N-(3-((1-(1H-pyrazol-4-yl)-1H-benzo[d]imidazol-5-yl)ethynyl)-4-methylphenyl)-4-(trifluoromethyl)picolinamide]
- GI50 [1]: 50 to 100 nM
- GI50 [2]: < 10 nM
- GI50 [3]: 50 to 100 nM
- GI50 [4]: 100 to 10000 nM

Compound: CCN(CC)CCn1cc(-n2cnc3cc(C#Cc4cc(NC(=O)c5cc(C(F)(F)F)ccn5)ccc4C)ccc32)cn1 [Compound I-42, N-(3-((1-(1-(2-(diethylamino)ethyl)-1H-pyrazol-4-yl)-1H-benzo[d]imidazol-5-yl)ethynyl)-4-methylphenyl)-4-(trifluoromethyl)picolinamide]
- GI50 [1]: 10 to 50 nM
- GI50 [2]: 10 to 50 nM
- GI50 [3]: 100 to 10000 nM
- GI50 [4]: 50 to 100 nM

Compound: Cc1ccc(C(=O)Nc2ccc(CN3CCCC3)c(C(F)(F)F)c2)cc1C#Cc1ccc2c(c1)ncn2C [Compound I-30, 4-methyl-3-((1-methyl-1H-benzo[d]imidazol-5-yl)ethynyl)-N-(4-(pyrrolidin-1-ylmethyl)-3-(trifluoromethyl)phenyl)benzamide]
- GI50 [1]: 50 to 100 nM
- GI50 [2]: 10 to 50 nM
- GI50 [3]: 100 to 10000 nM
- GI50 [4]: 50 to 100 nM

Compound: Cc1ccc(NC(=O)c2cc(C(F)(F)F)ccn2)cc1C#Cc1ccc2c(c1)ncn2-c1cnn(C)c1 [Compound I-44, N-(4-methyl-3-((1-(1-methyl-1H-pyrazol-4-yl)-1H-benzo[d]imidazol-5-yl)ethynyl)phenyl)-4-(trifluoromethyl)picolinamide]
- GI50 [1]: 10 to 50 nM
- GI50 [2]: < 10 nM
- GI50 [3]: 10 to 50 nM
- GI50 [4]: 10 to 50 nM

Compound: Cc1ccc(C(=O)Nc2cc(C(F)(F)F)ccn2)cc1C#Cc1ccc2nc(N)[nH]c2c1 [Compound I-10, 3-((2-amino-1H-benzo[d]imidazol-6-yl)ethynyl)-4-methyl-N-(4-(trifluoromethyl)pyridin-2-yl)benzamide]
- GI50 [1]: 100 to 10000 nM
- GI50 [2]: 10 to 50 nM
- GI50 [3]: 100 to 10000 nM
- GI50 [4]: 100 to 10000 nM

Compound: Cc1ccc(NC(=O)c2cc(C(F)(F)F)ccn2)cc1C#Cc1ccc2c(c1)ncn2-c1cnn(CCN(C)C)c1 [Compound I-41, N-(3-((1-(1-(2-(dimethylamino)ethyl)-1H-pyrazol-4-yl)-1H-benzo[d]imidazol-5-yl)ethynyl)-4-methylphenyl)-4-(trifluoromethyl)picolinamide]
- GI50 [1]: 10 to 50 nM
- GI50 [2]: < 10 nM
- GI50 [3]: 100 to 10000 nM
- GI50 [4]: 50 to 100 nM

Compound: COCCn1cc(-n2cnc3cc(C#Cc4cc(C(=O)Nc5cc(C(F)(F)F)ccn5)ccc4C)ccc32)cn1 [Compound I-32, 3-((1-(1-(2-methoxyethyl)-1H-pyrazol-4-yl)-1H-benzo[d]imidazol-5-yl)ethynyl)-4-methyl-N-(4-(trifluoromethyl)pyridin-2-yl)benzamide]
- GI50 [1]: < 10 nM
- GI50 [2]: < 10 nM
- GI50 [3]: 10 to 50 nM
- GI50 [4]: 10 to 50 nM

Compound: Cc1ccc(NC(=O)c2ccc(CN3CCN(C)CC3)c(C(F)(F)F)c2)cc1C#Cc1ccc2c(c1)ncn2C [Compound I-18, N-(4-methyl-3-((1-methyl-1H-benzo[d]imidazol-5-yl)ethynyl)phenyl)-4-((4-methylpiperazin-1-yl)methyl)-3-(trifluoromethyl)benzamide]
- GI50 [1]: 100 to 10000 nM
- GI50 [2]: 100 to 10000 nM
- GI50 [3]: 100 to 10000 nM
- GI50 [4]: 100 to 10000 nM

Compound: Cc1ccc(NC(=O)c2cc(C(F)(F)F)ccn2)cc1C#Cc1ccc2c(c1)ncn2C [Compound I-45, N-(4-methyl-3-((1-methyl-1H-benzo[d]imidazol-5-yl)ethynyl)phenyl)-4-(trifluoromethyl)picolinamide]
- GI50 [1]: 10 to 50 nM
- GI50 [2]: 10 to 50 nM
- GI50 [3]: 50 to 100 nM
- GI50 [4]: 50 to 100 nM

Compound: Cc1ccc(C(=O)Nc2cc(C(F)(F)F)ccn2)cc1C#Cc1ccc2c(c1)ncn2-c1cccc(N2CCN(C)CC2)c1 [Compound I-14, 4-methyl-3-((1-(3-(4-methylpiperazin-1-yl)phenyl)-1H-benzo[d]imidazol-5-yl)ethynyl)-N-(4-(trifluoromethyl)pyridin-2-yl)benzamide]
- GI50 [1]: 100 to 10000 nM
- GI50 [2]: 50 to 100 nM
- GI50 [3]: 100 to 10000 nM
- GI50 [4]: 100 to 10000 nM

Compound: Cc1ccc(C(=O)Nc2cc(C(F)(F)F)ccn2)cc1C#Cc1ccc2c(c1)ncn2CCN1CCOCC1 [Compound I-5, 4-methyl-3-((1-(2-morpholinoethyl)-1H-benzo[d]imidazol-5-yl)ethynyl)-N-(4-(trifluoromethyl)pyridin-2-yl)benzamide]
- GI50 [1]: 100 to 10000 nM
- GI50 [2]: 50 to 100 nM
- GI50 [3]: 100 to 10000 nM
- GI50 [4]: 100 to 10000 nM

Compound: Cc1ccc(NC(=O)c2ccc(CN3CCN(C)CC3)c(C(F)(F)F)c2)cc1C#Cc1ccc2c(c1)ncn2-c1cnn(C)c1 [Compound I-46, N-(4-methyl-3-((1-(1-methyl-1H-pyrazol-4-yl)-1H-benzo[d]imidazol-5-yl)ethynyl)phenyl)-4-((4-methylpiperazin-1-yl)methyl)-3-(trifluoromethyl)benzamide]
- GI50 [1]: 50 to 100 nM
- GI50 [2]: 10 to 50 nM
- GI50 [3]: 100 to 10000 nM
- GI50 [4]: 100 to 10000 nM

Compound: Cc1ccc(C(=O)Nc2cc(C(F)(F)F)ccn2)cc1C#Cc1ccc2c(c1)ncn2-c1cnn(C2CCN(C)CC2)c1 [Compound I-27, 4-methyl-3-((1-(1-(1-methylpiperidin-4-yl)-1H-pyrazol-4-yl)-1H-benzo[d]imidazol-5-yl)ethynyl)-N-(4-(trifluoromethyl)pyridin-2-yl)benzamide]
- GI50 [1]: 10 to 50 nM
- GI50 [2]: < 10 nM
- GI50 [3]: 10 to 50 nM
- GI50 [4]: 10 to 50 nM

Compound: CCn1cnc2cc(C#Cc3cc(C(=O)Nc4cc(C(F)(F)F)ccn4)ccc3C)ccc21 [Compound I-7, 3-((1-ethyl-H-benzo[d]imidazol-5-yl)ethynyl)-4-methyl-N-(4-(trifluoromethyl)pyridin-2-yl)benzamide]
- GI50 [1]: 50 to 100 nM
- GI50 [2]: 10 to 50 nM
- GI50 [3]: 100 to 10000 nM
- GI50 [4]: 100 to 10000 nM

Compound: Cc1ccc(C(=O)Nc2cc(C(F)(F)F)ccn2)cc1C#Cc1ccc2[nH]cnc2c1 [Compound I-2, 3-((1H-benzo[d]imidazol-5-yl)ethynyl)-4-methyl-N-(4-(trifluoromethyl)pyridin-2-yl)benzamide]
- GI50 [1]: 10 to 50 nM
- GI50 [2]: < 10 nM
- GI50 [3]: 50 to 100 nM
- GI50 [4]: 10 to 50 nM

Compound: CNC(=O)Cn1cnc2cc(C#Cc3cc(C(=O)Nc4cc(C(F)(F)F)ccn4)ccc3C)ccc21 [Compound I-1, 4-Methyl-3-((1-(2-(methylamino)-2-oxoethyl)-1H-benzo[d]imidazol-5-yl)ethynyl)-N-(4-(trifluoromethyl)pyridin-2-yl)benzamide]
- GI50 [1]: 100 to 10000 nM
- GI50 [2]: < 10 nM
- GI50 [3]: 100 to 10000 nM
- GI50 [4]: 100 to 10000 nM
